# Results taken from PubChem BioAssay (NCI).
#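 Each compound was tested at five concentrations against cells in 96-well plates for 48 hours. GI50: concentration for 50% inhibition of growth. TGI marks complete inhibition of growth.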
# Assays:
# Assay in all cases: inhibition of tumour cell growth, NCI panel, 48 h
# DU-145 prostate = tested on: DU-145 prostate
# NCI/ADR-RES ovarian = tested on: NCI/ADR-RES ovarian
# BT-549 breast = tested on: BT-549 breast
# MDA-MB-435 = tested on: MDA-MB-435
# T-47D breast = tested on: T-47D breast
# SNB-78 CNS = tested on: SNB-78 CNS
# KM20L2 colon = tested on: KM20L2 colon
# M19-MEL melanoma = tested on: M19-MEL melanoma
# DMS 273 small cell lung = tested on: DMS 273 small cell lung
Structure (SMILES),GI50 (DU-145 prostate) [µM],TGI (DU-145 prostate) [µM],GI50 (NCI/ADR-RES ovarian) [µM],TGI (NCI/ADR-RES ovarian) [µM],GI50 (BT-549 breast) [µM],TGI (BT-549 breast) [µM],GI50 (MDA-MB-435) [µM],TGI (MDA-MB-435) [µM],GI50 (T-47D breast) [µM],TGI (T-47D breast) [µM],TGI (SNB-78 CNS) [µM],TGI (KM20L2 colon) [µM],TGI (M19-MEL melanoma) [µM],TGI (DMS 273 small cell lung) [µM]
COc1ccc(-n2cc(-c3ccc(Cl)cc3)[nH]c2=S)cc1Cl,37.2,> 100,42.2,> 100,20.5,55,> 100,> 100,18.4,> 100,–,–,–,–
CC(=O)NC1=NC(=O)/C(=C/c2ccc(Cl)cc2Cl)N1C,–,> 100,–,> 100,–,> 100,–,> 100,–,–,–,–,–,–
COC(=O)C1=C(O)C(C(=O)OC)[C@@]2(O)[C@@H](C(=O)OC)C(c3ccccc3C(F)(F)F)C[C@@H]1[C@@H]2C(=O)OC (stereo partly specified),3.23,10.9,3.78,16.8,3.08,11.9,2.06,4.53,0.737,5.98,–,–,–,–
OCCOCn1nc(-c2ccccc2)nc1-c1cnccn1,–,> 100,–,> 100,–,> 100,–,–,–,> 100,–,–,–,–
O=C(CC1Sc2ccccc2NC1=O)Nc1ccc([N+](=O)[O-])cc1[N+](=O)[O-] (stereo unspecified),–,–,–,–,–,–,–,–,–,–,51.7,79.5,30.3,–
O=C(CCCCCn1c2ccccc2c2c3c(c4c5ccccc5[nH]c4c21)C(=O)N(O)C3=O)N1CCOCC1,3.12,12.2,5.93,> 100,–,–,2.25,5.58,2.61,7.89,–,–,–,–
COC(=O)C(=O)C(C(=O)C(=O)Nc1ccc(Cl)cc1Cl)c1nc2ccc(Cl)cc2[nH]c1=O (stereo unspecified),–,> 100,–,> 100,–,> 100,–,> 100,–,–,–,–,–,–
CC(=O)OC1CC[C@@]2(C)C(CC(OC3OC(CO)C(O)C(O)C3O)[C@]3(C)C2CCC24CC23CC[C@H]4C(C)CC(O)[C@@H](O)C(C)(C)O)C1(C)C (stereo partly specified),–,–,–,–,–,–,–,–,–,–,> 5,> 50,16,> 50
COc1ccc(-c2ccc(/C=N/n3cnn(CN4CCN(C)CC4)c3=S)o2)c([N+](=O)[O-])c1,38.1,> 100,–,–,27.5,91.8,30.4,63.1,23.1,54.3,–,–,–,–
Cc1c(Br)cccc1NC(=O)c1sc2nc3c(cc2c1N)CN(Cc1ccccc1)CC3,0.168,2.99,0.136,10.5,0.708,25.3,0.0366,0.141,0.205,> 50,–,–,–,–
CC(=O)O/N=C1\C=Cc2c(no[n+]2[O-])C1=O,–,32,–,68.1,–,–,–,36,–,57.5,–,–,–,–
NC(N)=Nc1nc2cc(N)ccc2o1,–,–,–,–,–,–,–,–,–,–,> 100,> 100,> 100,–
CC([C@H]1CCC2C3CCC4C(=O)C(NC=O)=CC[C@]4(C)C3CC[C@@]21C)N(C)C (stereo partly specified),8.07,25.1,6.8,27.2,3.94,21.3,2.81,> 29.9,1.73,6.57,–,–,–,–
COc1cc(Oc2cnc3cc(N)cc(N)c3n2)cc(OC)c1OC,62.3,> 100,30.6,> 100,43.5,> 100,24.3,59.1,33.5,> 100,–,–,–,–
CC(C)n1c2c(c3ccccc3c1=O)C(=O)c1ccccc1-2,–,> 100,–,> 100,–,> 100,–,> 100,–,> 100,–,–,–,–
COc1cc(C2CC(c3ccc(C)cc3)=NN2C(C)=O)ccc1Oc1ccnc2cc(Cl)ccc12 (stereo unspecified),> 100,> 100,–,–,3.48,> 100,> 100,> 100,2.28,73.4,–,–,–,–
CC(CC(C)[C@H]1CCC2[C@H]3C(CC[C@@]21C)[C@@]1(C)CCC(O)C[C@H]1C[C@@H]3O)C(=O)O (stereo partly specified),–,> 100,–,> 100,–,> 100,–,> 100,–,> 100,–,–,–,–
CCCCC#Cc1c(I)n(C2OC(CO[Si](C)(C)C(C)(C)C)C3OC(C)(C)OC32)c(=O)[nH]c1=O (stereo unspecified),3.48,12.9,18.1,49.7,14.8,28.7,14.6,29.8,–,–,–,–,–,–
COc1cc(C2C3=C(COC3=O)N(CCO)c3cc4c(cc32)OCCO4)cc(OC)c1O (stereo unspecified),1.71,> 21.7,> 31.8,> 50,5.71,> 27.8,0.331,1.71,3.38,> 50,–,–,–,–
CN1CCN(c2nc(NCCNc3ccnc4cc(Cl)ccc34)c3ccccc3n2)CC1,–,–,16,37,3.49,12.8,1.85,3.61,1.94,4.79,–,–,–,–
O=C(NCCc1ccccc1)C(c1csc2ccccc12)N(C(=O)CCl)c1ccc(-c2cnco2)cc1 (stereo unspecified),0.461,2.3,0.114,1.17,0.228,0.574,1.54,3.18,1.02,2.89,–,–,–,–
CCSc1sc(-c2ccc(C)cc2)nc1[P+](c1ccccc1)(c1ccccc1)c1ccccc1,0.346,1.35,–,–,0.295,1.32,0.268,0.801,0.0863,1.27,–,–,–,–
COc1cc(C=C2C(=O)OC(C)(C)OC2=O)cc(OC)c1OC,–,–,–,–,–,–,–,–,–,–,> 100,> 100,> 100,> 100
CCCCCCCC(=O)SCC/C=C/[C@@H]1CC(=O)NCc2cccc(n2)CN(Cc2ccc(Cl)cc2)CC(=O)N[C@@H](C(C)C)C(=O)O1,10.9,> 100,11.4,> 100,37.1,> 100,6.06,> 100,29.3,98.7,–,–,–,–
COc1ccc(OC)c(-c2cc(-c3ccc(Cl)cc3)nn2-c2ccc(S(N)(=O)=O)cc2)c1,12.1,25.9,6.54,22.2,12.4,29.4,18.2,43.9,–,–,–,–,–,–
